# Results: PubChem BioAssay AID2060888 (Molecular Pharmacology Branch, DTP, NCI, 2025)
# Tested on: 695427-040-R-J1-PDC complex spheroid viability
# Test: Anticancer human tumor 695427-040-R-J1-PDC patient-derived colon adenocarcinoma cell line growth inhibition [RAS]
# Conditions: for IC50: curve of first compound; for viability, T/C: stronger effect = lower value
# How it was run: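 Tumour cells grown as complex spheroids with HUVEC endothelial cells and mesenchymal stem cells, treated with RAS pathway inhibitor combinations. Each agent spans half-log steps from near clinical Cmax, or 10 microM where Cmax is unknown.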
# [1] = second compound 0.000949 µM, first compound 0.0316 µM
# [2] = second compound 0.000949 µM, first compound 0.1 µM
# [3] = second compound 0.000949 µM, first compound 0.316 µM
# [4] = second compound 0.000949 µM, first compound 1 µM
# [5] = second compound 0.000949 µM, first compound 3.16 µM
# [6] = second compound 0.000949 µM, first compound 10 µM
# [7] = second compound 0.003 µM, first compound 0.0316 µM
# [8] = second compound 0.003 µM, first compound 0.1 µM
# [9] = second compound 0.003 µM, first compound 0.316 µM
# [10] = second compound 0.003 µM, first compound 1 µM
# [11] = second compound 0.003 µM, first compound 3.16 µM
# [12] = second compound 0.003 µM, first compound 10 µM
# [13] = second compound 0.00949 µM, first compound 0.0316 µM
# [14] = second compound 0.00949 µM, first compound 0.1 µM
# [15] = second compound 0.00949 µM, first compound 0.316 µM
# [16] = second compound 0.00949 µM, first compound 1 µM
# [17] = second compound 0.00949 µM, first compound 3.16 µM
# [18] = second compound 0.00949 µM, first compound 10 µM
# [19] = second compound 0.03 µM, first compound 0.0316 µM
# [20] = second compound 0.03 µM, first compound 0.1 µM
# [21] = second compound 0.03 µM, first compound 0.316 µM
# [22] = second compound 0.03 µM, first compound 1 µM
# [23] = second compound 0.03 µM, first compound 3.16 µM
# [24] = second compound 0.03 µM, first compound 10 µM
# [25] = second compound 0.0949 µM, first compound 0.0316 µM
# [26] = second compound 0.0949 µM, first compound 0.1 µM
# [27] = second compound 0.0949 µM, first compound 0.316 µM
# [28] = second compound 0.0949 µM, first compound 1 µM
# [29] = second compound 0.0949 µM, first compound 3.16 µM
# [30] = second compound 0.0949 µM, first compound 10 µM
# [31] = second compound 0.3 µM, first compound 0.0316 µM
# [32] = second compound 0.3 µM, first compound 0.1 µM
# [33] = second compound 0.3 µM, first compound 0.316 µM
# [34] = second compound 0.3 µM, first compound 1 µM
# [35] = second compound 0.3 µM, first compound 3.16 µM
# [36] = second compound 0.3 µM, first compound 10 µM
# 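Also: viability read after seven days of drug exposure.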
# 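For viability, T/C in this document: 100% = DMSO vehicle control viability.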
smiles,measurement,setting,value
Cc1nc(N2CCC3(CC2)COC(C)C3N)c(CO)nc1Sc1ccnc(N)c1Cl (stereo unspecified) + CCn1c(-c2cccnc2C(C)OC)c2c3cc(ccc31)N1CCOC(CC(NC(=O)C(C(C)C)N(C)C(=O)C3(F)CCN(C(=O)C#CC(C)(C)N(C)C)CC3)C(=O)N3CCCC(N3)C(=O)OCC(C)(C)C2)C1,IC50,second compound 0.000949 µM,> 10000 nM
same,IC50,second compound 0.003 µM,> 10000 nM
same,IC50,second compound 0.00949 µM,> 10000 nM
same,IC50,second compound 0.03 µM,> 10000 nM
same,IC50,second compound 0.0949 µM,> 10000 nM
same,IC50,second compound 0.3 µM,2820 nM
same,"viability, T/C",[1],84.9%
same,"viability, T/C",[2],93.2%
same,"viability, T/C",[3],75.4%
same,"viability, T/C",[4],64.3%
same,"viability, T/C",[5],60.4%
same,"viability, T/C",[6],61.3%
same,"viability, T/C",[7],94.2%
same,"viability, T/C",[8],70.6%
same,"viability, T/C",[9],71.4%
same,"viability, T/C",[10],63.2%
same,"viability, T/C",[11],67.1%
same,"viability, T/C",[12],47.3%
same,"viability, T/C",[13],104%
same,"viability, T/C",[14],82%
same,"viability, T/C",[15],83.9%
same,"viability, T/C",[16],57.8%
same,"viability, T/C",[17],67.1%
same,"viability, T/C",[18],49.3%
same,"viability, T/C",[19],75%
same,"viability, T/C",[20],85.8%
same,"viability, T/C",[21],63%
same,"viability, T/C",[22],63.8%
same,"viability, T/C",[23],65.5%
same,"viability, T/C",[24],53.4%
same,"viability, T/C",[25],78.2%
same,"viability, T/C",[26],83.7%
same,"viability, T/C",[27],74%
same,"viability, T/C",[28],68.1%
same,"viability, T/C",[29],63%
same,"viability, T/C",[30],52.7%
same,"viability, T/C",[31],85.2%
same,"viability, T/C",[32],70.9%
same,"viability, T/C",[33],70.5%
same,"viability, T/C",[34],51.4%
same,"viability, T/C",[35],51.4%
same,"viability, T/C",[36],43.5%
NC1c2ccccc2OC12CCN(c1cnc3c(N4CCCc5ncccc54)n[nH]c3n1)CC2 (stereo unspecified) + CCn1c(-c2cccnc2C(C)OC)c2c3cc(ccc31)N1CCOC(CC(NC(=O)C(C(C)C)N(C)C(=O)C3(F)CCN(C(=O)C#CC(C)(C)N(C)C)CC3)C(=O)N3CCCC(N3)C(=O)OCC(C)(C)C2)C1,IC50,second compound 0.000949 µM,914 nM
same,IC50,second compound 0.003 µM,1370 nM
same,IC50,second compound 0.00949 µM,973 nM
same,IC50,second compound 0.03 µM,623 nM
same,IC50,second compound 0.0949 µM,940 nM
same,IC50,second compound 0.3 µM,665 nM
same,"viability, T/C",[1],80.3%
same,"viability, T/C",[2],78.3%
same,"viability, T/C",[3],61.7%
same,"viability, T/C",[4],49.1%
same,"viability, T/C",[5],50.5%
same,"viability, T/C",[6],43.2%
same,"viability, T/C",[7],88.9%
same,"viability, T/C",[8],70.5%
same,"viability, T/C",[9],60.6%
same,"viability, T/C",[10],45.7%
same,"viability, T/C",[11],55.7%
same,"viability, T/C",[12],38.6%
same,"viability, T/C",[13],95.2%
same,"viability, T/C",[14],58.1%
same,"viability, T/C",[15],62.7%
same,"viability, T/C",[16],54.6%
same,"viability, T/C",[17],54.1%
same,"viability, T/C",[18],32.8%
same,"viability, T/C",[19],79.3%
same,"viability, T/C",[20],63.4%
same,"viability, T/C",[21],53%
same,"viability, T/C",[22],45.1%
same,"viability, T/C",[23],50.6%
same,"viability, T/C",[24],35.3%
same,"viability, T/C",[25],67%
same,"viability, T/C",[26],67.4%
same,"viability, T/C",[27],53.2%
same,"viability, T/C",[28],47.4%
same,"viability, T/C",[29],46.2%
same,"viability, T/C",[30],31.7%
same,"viability, T/C",[31],75.3%
same,"viability, T/C",[32],46.4%
same,"viability, T/C",[33],60.4%
same,"viability, T/C",[34],51.8%
same,"viability, T/C",[35],38.9%
same,"viability, T/C",[36],27.1%
Nc1ccn(C2OC(CO)C(O)C2(F)F)c(=O)n1 (stereo unspecified) + CCn1c(-c2cccnc2C(C)OC)c2c3cc(ccc31)N1CCOC(CC(NC(=O)C(C(C)C)N(C)C(=O)C3(F)CCN(C(=O)C#CC(C)(C)N(C)C)CC3)C(=O)N3CCCC(N3)C(=O)OCC(C)(C)C2)C1,IC50,second compound 0.000949 µM,> 1000 nM
same,IC50,second compound 0.003 µM,> 1000 nM
same,IC50,second compound 0.00949 µM,> 1000 nM
same,IC50,second compound 0.03 µM,> 1000 nM
same,IC50,second compound 0.0949 µM,> 1000 nM
same,IC50,second compound 0.3 µM,> 1000 nM
same,"viability, T/C","second compound 0.000949 µM, first compound 0.00316 µM",92.7%
same,"viability, T/C","second compound 0.000949 µM, first compound 0.01 µM",106%
same,"viability, T/C",[1],98.3%
same,"viability, T/C",[2],82%
same,"viability, T/C",[3],77.3%
same,"viability, T/C",[4],67.5%
same,"viability, T/C","second compound 0.003 µM, first compound 0.00316 µM",79.4%
same,"viability, T/C","second compound 0.003 µM, first compound 0.01 µM",98%
same,"viability, T/C",[7],87.3%
same,"viability, T/C",[8],71%
same,"viability, T/C",[9],83.5%
same,"viability, T/C",[10],58.6%
same,"viability, T/C","second compound 0.00949 µM, first compound 0.00316 µM",98.3%
same,"viability, T/C","second compound 0.00949 µM, first compound 0.01 µM",74.3%
same,"viability, T/C",[13],87.2%
same,"viability, T/C",[14],64.8%
same,"viability, T/C",[15],82.7%
same,"viability, T/C",[16],63.5%
same,"viability, T/C","second compound 0.03 µM, first compound 0.00316 µM",83%
same,"viability, T/C","second compound 0.03 µM, first compound 0.01 µM",99%
same,"viability, T/C",[19],83.5%
same,"viability, T/C",[20],75.9%
same,"viability, T/C",[21],83.1%
same,"viability, T/C",[22],74.2%
same,"viability, T/C","second compound 0.0949 µM, first compound 0.00316 µM",80%
same,"viability, T/C","second compound 0.0949 µM, first compound 0.01 µM",94.6%
same,"viability, T/C",[25],99.6%
same,"viability, T/C",[26],73.5%
same,"viability, T/C",[27],77.8%
same,"viability, T/C",[28],62.2%
same,"viability, T/C","second compound 0.3 µM, first compound 0.00316 µM",63.5%
same,"viability, T/C","second compound 0.3 µM, first compound 0.01 µM",97.8%
same,"viability, T/C",[31],80.8%
same,"viability, T/C",[32],79.3%
same,"viability, T/C",[33],78.7%
same,"viability, T/C",[34],65.7%
